# Measurements from publication PMC9019100, “Development of NanoLuc-targeting protein degraders and a universal reporter system to benchmark tag-targeted degradation platforms” (Nature Communications, 2022).
# Values joined by “and” are separate entries in the source; they are usually repeats but may differ in a detail not shown here. Equal entries are not always repeated. Where two headings read alike, the source gives them in different places.
# What was measured:
# [1] = molecular target: T1, Halo-EGFP-NanoLuc-FKBP^F36V (H-E-N-F) fusion protein (UniProt P0A3G2+P62942+Q9GV45, A155T/A167V/A172T/A224E/A31E/A60N/A81I/C128F/C176G/D78G/E160K/E257K/F37V/F95D/H272N/I117V/K175M/K195N/K70R/L47V/L54V/L88M/L99Q/M102K/N193R/N227D/P142E/P291S/Q151K/Q38R/Q45L/S2A/S58T/T264A/V71I/Y165I/Y273L/Y87F); assay type: cell-based; conditions: for Blank corrected (470-80) luminescence / Blank corrected Raw Data (470-80): +dox; for Blank corrected (470-80) luminescence: single well replicates; for Blank corrected (470-80): sheet S3B; for Blank corrected (470-80) / Blank corrected Raw Data (470-80): replicate wells; for Blank corrected Raw Data (470-80): PROTAC 500nM
# [2] = test system: MLKL^−/− HT29 cells expressing untagged MLKL; assay type: cell-based; conditions: for Live cells (%PI negative) after TNF+911+zVAD: independent experiments
# [3] = test system: wild-type HT29 cells; assay: Necroptosis assay (PI exclusion, flow cytometry), wild-type HT29 cells, TNF+SM+IDN; assay type: cell-based, human; conditions: sheet S5H
# Experimental: To simulate necroptosis, cells were seeded into 96-well plates ±40 ng/mL doxycycline, to induce construct expression, and treated with 100 ng/mL FLAG-TNF (recombinant human, in-house), 500 nM compound A Smac mimetic (kindly gifted by TetraLogics Pharmaceuticals) and 5 μM IDN-6556 (Cayman) or 10 uM Z-VAD-fmk (Selleckchem) overnight (16–24 h). Degrader compounds or a DMSO vehicle control were added for 5 h, as stated in the Fig. legends. Cells were detached using Trypsin-EDTA (Merck) and resuspended in cell supernatants containing 10 μg/mL propidium iodide (PI). PI exclusion analysis was performed using an LSR II flow cytometer (Becton Dickinson, NJ) with 10,000 single-cell events per sample. Flow cytometry data were analysed using WEASEL version 2.7 software (Frank Battye).
# Supplementary Figure 5. […]
# NC4. Data are representative of N = 3 independent experiments. f-h. HT29 cells were stimulated with DMSO (control) or 500 nM of degrader for 5 hours before the addition of TNF (100 ng/mL) + Smac mimetic (compound A; 500 nM-1 µM) + caspase inhibitor; Emricasan (IDN) (5 µM), for 24 hours. Cell death was assessed by flow cytometric analysis of PI exclusion. N = 3 replicates (symbols) is shown, EB; mean ± SD. Data are representative of N = 3 independent experiments. i. Representative flow cytometry gating strategy. Source data are provided as a Source Data file.
# [4] = test system: MLKL^−/− HT29 cells expressing MLKL-FKBP^F36V; assay type: cell-based; conditions: for Live cells (%PI negative) after TNF+911+zVAD: MLKL-/- + MLKL FKBPF36V, independent experiments
# [5] = molecular target: T1, Halo-EGFP-NanoLuc-FKBP^F36V (H-E-N-F) fusion protein; assay type: cell-based; design: expressed in transfected cells; host or cells: immortalized mouse dermal fibroblasts (iMDFs), ubiquitin promoter, constitutive; conditions: 500 nM; for time up to which degradation was maintained, degrader removed at 5 h: 24 or 48 h after removal
# [6] = molecular target: T2, Fibrillarin-FKBP^F36V (Homo sapiens, UniProt P62942, F37V); assay type: cell-based; conditions: 500 nM, 10 h
# T2 construct: endogenous in cells; host or cells: 293T, CRISPR/PITCh knock-in at the FBL locus
# [7] = molecular target: T3, murine MLKL-FKBP^F36V (Homo sapiens, UniProt P62942, F37V); assay type: cell-based; conditions: 31.2-500 nM, 5 h
# T3 construct: expressed in transfected cells; host or cells: Mlkl-/- mouse dermal fibroblasts, doxycycline-inducible
# [8] = molecular target: T4, Fibrillarin-Halo (Rhodococcus rhodochrous, UniProt P0A3G2, A155T/A167V/A172T/A224E/C128F/C176G/D78G/E160K/E257K/H272N/K175M/K195N/L47V/L88M/N227D/P291S/S2A/S58T/T264A/Y273L/Y87F); assay type: cell-based; conditions: 500 nM, 10 h
# T4 construct: endogenous in cells; host or cells: 293T, CRISPR/PITCh knock-in at the FBL locus
# [9] = test system: MLKL^−/− HT29 cells expressing MLKL-Halo; assay type: cell-based
# [10] = cited from earlier work
# T4 sequence (P0A3G2 other isoform, or with tags, fused parts or gaps with the stated changes): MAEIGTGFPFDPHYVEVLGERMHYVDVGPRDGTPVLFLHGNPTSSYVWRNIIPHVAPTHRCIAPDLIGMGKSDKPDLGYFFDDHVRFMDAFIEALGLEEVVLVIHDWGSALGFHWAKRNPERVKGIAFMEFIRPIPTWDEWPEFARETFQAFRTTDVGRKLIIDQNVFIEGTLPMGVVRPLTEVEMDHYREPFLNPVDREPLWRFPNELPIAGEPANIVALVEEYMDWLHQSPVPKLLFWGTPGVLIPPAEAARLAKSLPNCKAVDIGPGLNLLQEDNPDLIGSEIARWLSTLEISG
# T3 sequence (P62942 whole entry F37V): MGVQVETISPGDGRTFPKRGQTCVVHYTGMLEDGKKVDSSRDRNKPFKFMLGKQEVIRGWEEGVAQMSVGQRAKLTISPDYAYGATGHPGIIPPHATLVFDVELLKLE
# T2 sequence (P62942 whole entry F37V): as above
compound,measurement,setting,value
CC[C@H](C(=O)N1CCCC[C@H]1C(=O)O[C@H](CCc1ccc(OC)c(OC)c1)c1ccccc1OCC(=O)NCCCCCCOc1cccc2c1C(=O)N(C1CCC(=O)NC1=O)C2=O)c1cc(OC)c(OC)c(OC)c1 (stereo partly shown) [FC1],Blank corrected (470-80) luminescence,[1]; 3.9nM PROTAC,74602 and 77149 and 76062 and 81411
same,Blank corrected (470-80) luminescence,[1]; 7.8nM PROTAC,59479 and 62985 and 66400
same,Blank corrected (470-80) luminescence,[1]; 31.25nM PROTAC,36339 and 35562 and 38426
same,Blank corrected (470-80) luminescence,[1]; 62.5nM PROTAC,25282 and 26898 and 23798 and 25010
same,Blank corrected (470-80),[1]; 62.5nM,88170.7 and 89328.7 and 91847.7 and 71716.7
same,Blank corrected (470-80) luminescence,[1]; 250nM PROTAC,11621 and 12159 and 11550
same,Blank corrected (470-80),[1]; 250nM,43826.7 and 54015.7 and 43806.7 and 52617.7
same,Blank corrected (470-80) luminescence,"[1]; 500nM PROTAC, 5h",14990 and 16286 and 14132
same,Blank corrected (470-80) luminescence,"[1]; 500nM PROTAC, 8h",14691 and 12990 and 15151
same,Blank corrected (470-80) luminescence,"[1]; 500nM PROTAC, 24h",19581 and 16848 and 19949 and 18475
same,Blank corrected (470-80) luminescence,[1]; 500nM PROTAC,10379 and 10950 and 11612
same,Blank corrected (470-80),[1]; 500nM,41968.7 and 40671.7 and 43532.7 and 41295.7
same,Blank corrected (470-80) luminescence,[1]; 1uM PROTAC,13507 and 14074 and 13991 and 15263
same,Blank corrected (470-80),[1]; 1uM,51312.7 and 60071.7 and 47699.7 and 53692.7
same,Blank corrected Raw Data (470-80),[1]; DMSO (control) co-treatment,8854 and 8375 and 8376 and 8057
same,Blank corrected Raw Data (470-80),[1]; co-treatment with MG132 (10uM),80455 and 95513 and 84222 and 82486
same,Live cells (%PI negative) after TNF+911+zVAD,"[2]; MLKL-/- + MLKL, 3.9nM",6.9 and 6.6 and 8.9 and 5.1
same,Live cells (%PI negative) after TNF+911+zVAD,"[2]; MLKL-/- + MLKL, 7.8nM",6.1 and 5.8 and 8.5 and 4.8
same,Live cells (%PI negative) after TNF+911+zVAD,"[2]; MLKL-/- + MLKL, 31.25nM",5.7 and 5.5 and 8.3 and 4.7
same,Live cells (%PI negative) after TNF+911+zVAD,"[2]; MLKL-/- + MLKL, 62.5nM",6.6 and 6 and 9 and 4.5
same,viable cells (PI exclusion),[3]; TNF+SM+IDN,8.5 and 5.7 and 7.1
same,viable cells (PI exclusion),[3]; Untreated (no death stimulus),77.5 and 79.3 and 78.7
same,concentration sustaining cell survival over 24 h,[4],62.5 nM
same,Live cells (%PI negative) after TNF+911+zVAD,[4]; 31.25nM,75.8 and 59.7 and 66 and 51.4
same,Live cells (%PI negative) after TNF+911+zVAD,[4]; 62.5nM,81.5 and 75.5 and 67.7 and 62.5
same,Live cells (%PI negative) after TNF+911+zVAD,[4]; 250nM,83.3 and 81.2 and 68.1 and 65
same,Live cells (%PI negative) after TNF+911+zVAD,[4]; 500nM,83.3 and 81.7 and 67.1 and 65
same,Live cells (%PI negative) after TNF+911+zVAD,[4]; 1000nM,81 and 84.9 and 67.9 and 54.3
same,"time up to which degradation was seen, degrader left in the medium","[5]; 5, 24 or 48 h",up to 48 h
same,"time up to which degradation was maintained, degrader removed at 5 h",[5],up to 48 h
same,Dmax (densitometry),[6],~ 70%
same,degradation of murine MLKL-FKBP^F36V,[7],comparable degradation
Cc1ncsc1-c1ccc(CNC(=O)[C@@H]2C[C@@H](O)CN2C(=O)[C@@H](NC(=O)C2(C#N)CC2)C(C)(C)C)c(OCCOCCOCCOCCCCCCCl)c1 [HV2],Blank corrected (470-80) luminescence,[1]; 3.9nM PROTAC,79470 and 68951 and 78183 and 76420
same,Blank corrected (470-80) luminescence,[1]; 7.8nM PROTAC,72797 and 64329 and 67516 and 60174
same,Blank corrected (470-80) luminescence,[1]; 31.25nM PROTAC,46917 and 44939 and 48832 and 45085
same,Blank corrected (470-80) luminescence,[1]; 62.5nM PROTAC,40512 and 37700 and 38124 and 40329
same,Blank corrected (470-80) luminescence,[1]; 250nM PROTAC,30717 and 30890 and 31914 and 28801
same,Blank corrected (470-80) luminescence,"[1]; 500nM PROTAC, 5h",69924 and 50626 and 73472 and 59650
same,Blank corrected (470-80) luminescence,"[1]; 500nM PROTAC, 8h",70698 and 62420 and 68286 and 57616
same,Blank corrected (470-80) luminescence,"[1]; 500nM PROTAC, 24h",56615 and 44142 and 53902 and 55861
same,Blank corrected (470-80) luminescence,[1]; 500nM PROTAC,27860 and 28299 and 29718 and 30521
same,Blank corrected (470-80) luminescence,[1]; 1uM PROTAC,27861 and 28948 and 28638 and 31530
same,Blank corrected Raw Data (470-80),[1]; DMSO (control) co-treatment,30990 and 24165 and 26494 and 23014
same,Blank corrected Raw Data (470-80),[1]; co-treatment with MG132 (10uM),55749 and 70265 and 64908 and 78527
same,TNF+911+zVAD (PI exclusion),[2],6.7 and 3.6 and 5.5
same,TNF+911+zVAD (PI exclusion),"[2]; MLKL-/- + MLKL, TNF+911+zVAD, degrader 3.9nM, replicate columns",7.3 and 3.4 and 6.6
same,TNF+911+zVAD (PI exclusion),"[2]; MLKL-/- + MLKL, TNF+911+zVAD, degrader 7.8nM, replicate columns",7.3 and 4.5 and 5.7
same,TNF+911+zVAD (PI exclusion),"[2]; MLKL-/- + MLKL, TNF+911+zVAD, degrader 31.25nM, replicate columns",9.7 and 4.3 and 5.6
same,TNF+911+zVAD (PI exclusion),"[2]; MLKL-/- + MLKL, TNF+911+zVAD, degrader 62.5nM, replicate columns",7.8 and 3.5 and 5.8
same,TNF+911+zVAD (PI exclusion),"[2]; MLKL-/- + MLKL, TNF+911+zVAD, degrader 250nM, replicate columns",6.5 and 3.9 and 5.8
same,TNF+911+zVAD (PI exclusion),"[2]; MLKL-/- + MLKL, TNF+911+zVAD, degrader 500nM, replicate columns",8.6 and 4.3 and 7.2
same,TNF+911+zVAD (PI exclusion),"[2]; MLKL-/- + MLKL, TNF+911+zVAD, degrader 1000nM, replicate columns",8.3 and 4 and 5.4
same,Dmax (densitometry),[8],~ 94.8%
same,viable cells (PI exclusion),[3]; TNF+SM+IDN,9.6 and 6.1 and 6.3
same,viable cells (PI exclusion),[3]; Untreated (no death stimulus),75.8 and 75.3 and 68.5
same,TNF+911+zVAD (PI exclusion),[9],75.3 and 62.1 and 72
same,concentration required to maintain cell survival,[9],125 nM
same,TNF+911+zVAD (PI exclusion),"[9]; MLKL-/- + MLKL HALO, TNF+911+zVAD, degrader 3.9nM, replicate columns",6.8 and 4 and 7.3
same,TNF+911+zVAD (PI exclusion),"[9]; MLKL-/- + MLKL HALO, TNF+911+zVAD, degrader 7.8nM, replicate columns",6.9 and 4.5 and 9.3
same,TNF+911+zVAD (PI exclusion),"[9]; MLKL-/- + MLKL HALO, TNF+911+zVAD, degrader 31.25nM, replicate columns",33 and 22.8 and 23.9
same,TNF+911+zVAD (PI exclusion),"[9]; MLKL-/- + MLKL HALO, TNF+911+zVAD, degrader 62.5nM, replicate columns",77 and 48.6 and 62.6
same,TNF+911+zVAD (PI exclusion),"[9]; MLKL-/- + MLKL HALO, TNF+911+zVAD, degrader 250nM, replicate columns",88.6 and 71.9 and 68.6
same,TNF+911+zVAD (PI exclusion),"[9]; MLKL-/- + MLKL HALO, TNF+911+zVAD, degrader 500nM, replicate columns",85.7 and 70.1 and 67.1
same,TNF+911+zVAD (PI exclusion),"[9]; MLKL-/- + MLKL HALO, TNF+911+zVAD, degrader 1000nM, replicate columns",77.8 and 71.5 and 66.8
same,"time up to which degradation was maintained, degrader removed at 5 h",[5],depletion not maintained
CO[C@H]1C[C@@H]2CC[C@@H](C)[C@@](O)(O2)C(=O)C(=O)N2CCCC[C@H]2C(=O)O[C@H]([C@H](C)C[C@@H]2CC[C@@H](OCCOCc3cn(CCOCCOCCNc4cccc5c4C(=O)N(C4CCC(=O)NC4=O)C5=O)nn3)[C@H](OC)C2)CC(=O)[C@H](C)/C=C(/C)[C@@H](O)[C@@H](OC)C(=O)[C@H](C)C[C@H](C)\C=C/C=C\C=C/1C (stereo partly shown) [RC32],depletion of substrates in animals,[10],efficient depletion of substrates
same,tolerability in animals,[10],well tolerated
